{
  "source": "patent US6855511B2",
  "about": "“Fructosamine oxidase assay: methods and materials” (Protemix Corporation Limited, priority 1998, dated 2005)",
  "format_in_all_cases": "biochemical",
  "key": {"fructosamine oxidase [1]": {"system": "fructosamine oxidase", "assay": "Specificity of the fructosamine oxidase assay for reactive oxygen species, free radical scavengers added to the reagent", "details": "free radical scavenger added to the reagent (superoxide dismutase 20 kU/L, catalase 1000 kU/L, mannitol 50 mmol/L); control 15.34 ± 0.16", "method": "(§1) The reagent is 50 mM TES buffer pH 7.4 containing 10 μM cytochrome c (Sigma), and […] 50 μM fructosamine as glycated bovine serum albumin.\n(§2) One unit of enzyme was defined as the amount which reduced 1 μmol/minute of cytochrome c in solution under the above assay conditions. The calculation factor is determined from the molar absorptivity for ferrocytochrome c (E550nm) according to the formula: U/L(μmol.min^−1.L^−1)=TV×10^3/ε550nm×SV where • TV=total reaction volume • SV=sample volume (iv) Materials\nThe specificity of the assay for reactive oxygen species was tested by measuring degree of inhibition of ferricytochrome c reduction after adding the following oxygen free radical scavengers to the reaction mixture: (a) Superoxide dismutase to selectively remove superoxide; (b) catalase to selectively remove hydrogen peroxide; & (iii) mannitol to scavenge hydroxyl radicals."}, "fructosamine oxidase [2]": {"system": "fructosamine oxidase", "assay": "Fructosamine oxidase inhibitor assay (ferricytochrome c reduction) in human blood plasma", "design": "velocity constant (K), fraction of the enzyme inhibited in a given period of time: dose or concentration left out as unconfirmed", "details": "human plasma sample; for IC50: read-out: IC50, concentration of inhibitor causing 50% inactivation of the enzyme", "method": "as §1, §2\nAn important application of the current activity assay is as a means to identify potential fructosamine oxidase antagonists and inhibitors. Fructosamine oxidase inhibitors may be hydrazine compounds which bind and block the quinone co-factor, copper chelators which bind and block the copper co-factor, or substrate analogues which mimic the normal substrate of the enzyme. […]\nThe effectiveness of an enzyme inhibitor is usually expressed by a velocity constant (K) which determines the fraction of the enzyme inhibited in a given period of time by a certain concentration of inhibitor. The specificity of the inhibitor for the active center of the enzyme is indicated by the concentration of inhibitor causing 50% inactivation of the enzyme (IC50). […]."}, "[3]": {"system": "Human fructosamine oxidase", "assay": "Interference of additives/anticoagulants in the fructosamine oxidase assay", "details": "additive in the reagent (Heparin 1000 U/L, EDTA 100 μM); control 100", "method": "as §1, §2\nCytochrome c is a non-specific reductant and other reducing substances in sera or anticoagulants added to the blood sample at specimen collection may interfere in the assay as shown in Table 4."}},
  "data": [
    {"molecule": "superoxide dismutase", "values": [
      {"measurement": "Enzyme activity", "setting": "fructosamine oxidase [1]", "value": "9.99 ± 0.03", "unit": "U/L"}
    ]},
    {"molecule": "OC[C@@H](O)[C@@H](O)[C@H](O)[C@H](O)CO", "note": "[mannitol]", "values": [
      {"measurement": "Enzyme activity", "setting": "fructosamine oxidase [1]", "value": "14.96 ± 0.19", "unit": "U/L"}
    ]},
    {"molecule": "C[C@@](Cc1ccc(O)c(O)c1)(NN)C(=O)O", "note": "[carbidopa]", "values": [
      {"measurement": "velocity constant (K), fraction of the enzyme inhibited in a given period of time", "setting": "fructosamine oxidase [2]", "value": 15, "unit": "% per minute"},
      {"measurement": "IC50", "setting": "fructosamine oxidase [2]", "value": 500, "unit": "nM"}
    ]},
    {"molecule": "Heparin", "values": [
      {"measurement": "Activity compared with control", "setting": "[3]", "value": 24.4, "unit": "%"}
    ]},
    {"molecule": "O=C(O)CN(CCN(CC(=O)O)CC(=O)O)CC(=O)O", "note": "[EDTA, ethylenediamine tetraacetic acid]", "values": [
      {"measurement": "Activity compared with control", "setting": "[3]", "value": 26.3, "unit": "%"}
    ]},
    {"molecule": "catalase", "values": [
      {"measurement": "Enzyme activity", "setting": "fructosamine oxidase [1]", "value": "12.23 ± 0.03", "unit": "U/L"}
    ]},
    {"molecule": "C[C@H](CS)C(=O)N1CCC[C@H]1C(=O)O", "note": "[captopril]", "values": [
      {"measurement": "velocity constant (K), fraction of the enzyme inhibited in a given period of time", "setting": "fructosamine oxidase [2]", "value": 2.6, "unit": "% per minute"},
      {"measurement": "IC50", "setting": "fructosamine oxidase [2]", "value": 830, "unit": "nM"}
    ]}
  ]
}
